Reference: patent publication US20210255193A1, “LYSINE REACTIVE PROBES AND USES THEREOF” (The Scripps Research Institute, priority 2017, published 2021)

Legend:
Experiment in all cases: competitive isoTOP-ABPP
Format in all cases: binding
[1] = target: T1, SRP54 Signal recognition particle 54 kDa protein (Homo sapiens, UniProt P61011); settings: for isoTOP-ABPP ratio (R) at liganded lysine P61011_K81: 50 uM, in vitro, sol, 231
T1 construct: isoTOP-ABPP experiments performed in cell lysates (in vitro); endogenous in cells; host or cells: soluble proteome of human cancer cell lines (MDA-MB-231, Ramos, Jurkat)
T1 sequence (P61011 whole entry): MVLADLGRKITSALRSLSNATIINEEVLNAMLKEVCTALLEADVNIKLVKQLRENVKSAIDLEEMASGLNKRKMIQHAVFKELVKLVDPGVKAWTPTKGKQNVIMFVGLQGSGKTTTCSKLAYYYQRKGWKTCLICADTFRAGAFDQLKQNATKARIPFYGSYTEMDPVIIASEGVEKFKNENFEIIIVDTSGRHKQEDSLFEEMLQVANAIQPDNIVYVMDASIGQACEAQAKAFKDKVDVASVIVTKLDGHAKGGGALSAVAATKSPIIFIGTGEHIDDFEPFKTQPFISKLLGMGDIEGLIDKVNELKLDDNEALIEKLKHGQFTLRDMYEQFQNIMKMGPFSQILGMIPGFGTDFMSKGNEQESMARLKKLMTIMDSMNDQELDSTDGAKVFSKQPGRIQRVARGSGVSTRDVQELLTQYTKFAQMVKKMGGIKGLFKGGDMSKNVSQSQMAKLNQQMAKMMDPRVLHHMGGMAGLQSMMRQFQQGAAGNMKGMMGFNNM
Description: (§1) In vitro covalent fragment treatment for isoTOP-ABPP. All compounds were made up as solutions in DMSO (100×) and were used at a final concentration of 50 μM for activated esters and 100 μM for guanidinylating agents. For each profiling sample, 0.5 ml of lysate was treated with 5 μl of the 100× compound stock solution or 5 μl of DMSO. Samples were treated with activated esters for
(§2) STP-alkyne labeling and click chemistry. For concentration-dependent reactivity measurements by isoTOP-ABPP, 0.5 ml proteome aliquots were treated at ambient temperature with 1 mM STP-alkyne 1 (5 μl of 100 mM stock in DMSO) and 0.1 mM STP alkyne 1 (5 μl of 10 mM stock in DMSO), respectively. For competitive isoTOP-ABPP, after in vitro fragment treatment (detailed above), the samples were labeled for 1 h at ambient temperature with 0.1 mM STP-alkyne 1 (5 μl of 10 mM stock in DMSO). Samples were conjugated by copper-mediated azide-alkyne cycloaddition (CuAAC) to either the light (1 mM STP-alkyne or fragment treated) or heavy (0.1 mM STP-alkyne or DMSO treated) TEV tags (10 μl of 5 mM stocks in DMSO, final concentration=100 μM) using tris(2-carboxyethyl)phosphine hydrochloride
(§3) R value calculation and processing. The ratios of light and heavy MS1 peaks for each unique peptide were quantified with a CIMAGE software using default parameters (3 MS1 acquisitions per peak and signal to noise threshold set to 2.5). For reactivity measurements by isoTOP-ABPP, the R value was calculated from the ratio of MS1 peak areas, comparing the 1 mM STP alkyne sample (light TEV tag) with the 0.1 mM STP alkyne sample (heavy TEV tag). For competitive isoTOP-ABPP, the R value was calculated from the ratio of MS1 peak areas, comparing the DMSO treated sample (heavy TEV tag) with the compound treated sample (light TEV tag). […] Ratios for unique peptide entries are calculated for each experiment; overlapping peptides with the same modified lysine (for example, different charge states, MudPIT chromatographic steps or tryptic termini) are grouped together and the median ratio is reported as the final ratio (R). The peptide ratios reported by CIMAGE were further filtered to ensure the removal or correction of low-quality ratios in each individual data set. The quality filters applied were the following: removal of half tryptic peptides; for ratios with high standard deviations from the median (90% of the median or above) the lowest ratio was taken instead of the median; removal of peptides with R=20 and only a single MS2 event triggered during the elution of the parent ion; manual annotation of all the peptides with ratios of 20, removing any peptides with low quality elution profiles that remained after the previous curation steps (only done for competitive isoTOP-ABPP).
(§4) Cross-data processing for fragment screening. For compound treated samples, biological replicates of the same condition were averaged, if the standard deviation was below 60% of the mean; otherwise, for lysines with at least one R value <4 for a particular compound, the lowest value of the ratio set was taken. For lysines, where all R values for a particular compound were ≥4, the average was reported. For peptides containing several possible modified lysines, the lysine with the highest number of quantification events was used for analysis and the remaining, redundant peptides were reported as alternative modification sites. Peptides included in the aggregate dataset (those used for further bioinformatics and statistical analyses) were required to have been quantified in 2 experiments for competitive isoTOP-ABPP. Lysines were categorized as liganded, if they had at least one ratio R≥4 (hit fragments). For liganded lysines with R=20 for all liganding events, lysines were required to have been quantified with R=20 in two separate experiments and were further required to have been quantified with R<20 in one additional experiment.

[2] = target: T2, ECH1 Delta(3,5)-Delta(2,4)-dienoyl-CoA isomerase, mitochondrial (Homo sapiens, UniProt Q13011); settings: for isoTOP-ABPP ratio (R) at liganded lysine Q13011_K112: 50 uM, in vitro, sol, 231
T2 construct: isoTOP-ABPP experiments performed in cell lysates (in vitro); endogenous in cells; host or cells: soluble proteome of human cancer cell lines (MDA-MB-231, Ramos, Jurkat)
T2 sequence (Q13011 34-328): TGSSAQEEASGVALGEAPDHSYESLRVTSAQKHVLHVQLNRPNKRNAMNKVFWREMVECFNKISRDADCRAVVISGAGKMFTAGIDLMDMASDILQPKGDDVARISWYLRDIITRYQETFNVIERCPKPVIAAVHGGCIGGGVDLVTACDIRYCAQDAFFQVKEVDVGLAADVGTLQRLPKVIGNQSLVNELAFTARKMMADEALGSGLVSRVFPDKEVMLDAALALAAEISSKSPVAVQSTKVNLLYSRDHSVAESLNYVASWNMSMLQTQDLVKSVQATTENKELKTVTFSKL
Description: as §1, §2, §3, §4

[3] = target: T3, CPOX Coproporphyrinogen-III oxidase, mitochondrial (Homo sapiens, UniProt P36551); settings: for isoTOP-ABPP ratio (R) at liganded lysine P36551_K404: 50 uM, in vitro, sol, 231
T3 construct: isoTOP-ABPP experiments performed in cell lysates (in vitro); endogenous in cells; host or cells: soluble proteome of human cancer cell lines (MDA-MB-231; Ramos and Jurkat also prepared)
T3 sequence (P36551 111-454): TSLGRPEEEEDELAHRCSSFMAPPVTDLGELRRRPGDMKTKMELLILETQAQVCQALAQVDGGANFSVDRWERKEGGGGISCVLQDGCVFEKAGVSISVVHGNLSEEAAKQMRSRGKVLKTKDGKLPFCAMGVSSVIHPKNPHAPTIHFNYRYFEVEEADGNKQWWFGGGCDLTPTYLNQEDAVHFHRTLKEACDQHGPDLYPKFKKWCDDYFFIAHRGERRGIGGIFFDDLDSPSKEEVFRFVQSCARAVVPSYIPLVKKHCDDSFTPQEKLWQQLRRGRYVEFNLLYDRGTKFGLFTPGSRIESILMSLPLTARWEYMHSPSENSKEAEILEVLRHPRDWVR
Description: as §1, §2, §3, §4

Row | SMILES | isoTOP-ABPP ratio (R) at liganded lysine P61011_K81 [1] | isoTOP-ABPP ratio (R) at liganded lysine Q13011_K112 [2] | isoTOP-ABPP ratio (R) at liganded lysine P36551_K404 [3] | isoTOP-ABPP ratio, lysine P61011_K81 ([1]; 50 uM_231_sol_in vitro) | isoTOP-ABPP ratio, lysine Q13011_K112 ([2]; 50 uM_231_sol_in vitro) | isoTOP-ABPP ratio, lysine P36551_K404 ([3]; 50 uM_231_sol_in vitro) | also measured
1 | O=C(Oc1ccc([N+](=O)[O-])cc1[N+](=O)[O-])c1ccc2ccccc2n1 [fragment 35, 2,4-Dinitrophenyl quinoline-2-carboxylate] | 0.8 | 1.0 | 1.2 | – | – | – | –
2 | O=C(CCc1coc2cc(F)ccc2c1=O)Oc1ccc([N+](=O)[O-])cc1[N+](=O)[O-] [fragment 36, 2,4-Dinitrophenyl 3-(7-fluoro-4-oxo-4H-chromen-3-yl)propanoate] | 1.3 | 1.3 | 1.0 | – | – | – | –
3 | O=C(Oc1ccc([N+](=O)[O-])cc1[N+](=O)[O-])c1ccc(-c2ccccc2)cc1 [fragment 37, 2,4-Dinitrophenyl [1,1′-biphenyl]-4-carboxylate] | 0.9 | 0.9 | 1.0 | – | – | – | –
4 | O=C(Oc1ccc([N+](=O)[O-])cc1[N+](=O)[O-])c1ccc(Oc2ccccc2)cc1 [fragment 39, 2,4-Dinitrophenyl 4-phenoxybenzoate] | 0.9 | 1.1 | 1.0 | – | – | – | –
5 | CC(C)(C)OC(=O)NCCCC(=O)Oc1ccc([N+](=O)[O-])cc1[N+](=O)[O-] [fragment 41, 2,4-Dinitrophenyl 4-((tert-butoxycarbonyl)amino)butanoate] | 1.0 | 1.0 | 1.0 | – | – | – | –
6 | O=C(Oc1ccc([N+](=O)[O-])cc1[N+](=O)[O-])C(c1ccccc1)(c1ccccc1)c1ccccc1 [fragment 42, 2,4-Dinitrophenyl 2,2,2-triphenylacetate] | 0.9 | 1.0 | 1.0 | – | – | – | –
7 | CC(=O)Oc1ccc([N+](=O)[O-])cc1[N+](=O)[O-] [fragment 43, 2,4-Dinitrophenyl acetate] | 20.0 | 1.2 | 1.1 | – | – | – | –
8 | N#Cc1ccc(C(=O)Oc2ccc([N+](=O)[O-])cc2[N+](=O)[O-])cc1 [fragment 44, 2,4-Dinitrophenyl 4-cyanobenzoate] | – | – | – | 1.0 | 0.9 | 1.0 | –
9 | O=C(CCc1ccc2c(c1)OCO2)Oc1ccc([N+](=O)[O-])cc1[N+](=O)[O-] [fragment 45, 2,4-Dinitrophenyl 3-(benzo[d][1,3]dioxol-5-yl)propanoate] | – | – | – | 1.0 | 1.0 | 1.2 | –
10 | O=C(ON1C(=O)CCC1=O)c1cc(C(F)(F)F)cc(C(F)(F)F)c1 [fragment 46, 3,5-Bis(trifluoromethyl)benzoic acid NHS ester] | – | – | – | 0.9 | 0.8 | 1.0 | –
11 | O=C(Oc1c(F)c(F)c(C(F)(F)F)c(F)c1F)c1cc(C(F)(F)F)cc(C(F)(F)F)c1 [fragment 47, 2,3,5,6-Tetrafluoro-4-(trifluoromethyl)phenyl 3,5-bis(trifluoromethyl)benzoate] | – | – | – | 0.9 | 1.0 | 1.5 | –
12 | O=C(Oc1c(F)c(F)cc(F)c1F)c1cc(C(F)(F)F)cc(C(F)(F)F)c1 [fragment 48, 2,3,5,6-Tetrafluorophenyl 3,5-bis(trifluoromethyl)benzoate] | – | – | – | 1.1 | 1.5 | 1.0 | –
13 | COC(=O)NC(=NC(=O)OCC1c2ccccc2-c2ccccc21)n1cccn1 [fragment 49, N-Methoxycarbonyl-N′-9-fluorenylmethoxycarbonyl-pyrazole-1-carboxamidine] | – | – | – | – | – | – | isoTOP-ABPP ratio, lysine P61011_K81 ([1]; 100 uM_231_sol_in vitro): 1.0; isoTOP-ABPP ratio, lysine Q13011_K112 ([2]; 100 uM_231_sol_in vitro): 1.1; isoTOP-ABPP ratio, lysine P36551_K404 ([3]; 100 uM_231_sol_in vitro): 2.5
14 | NC(=O)c1cc(C(F)(F)F)cc(C(F)(F)F)c1 [fragment 51, reference compound] | – | – | – | 0.7 | 1.0 | 0.9 | –
